One assay deals with PERK (Homo sapiens (Human), UniProt Q9NZJ5). Description: PERK cellular assay (TR-FRET, HEK293-EGFP-eIF2α cells, tunicamycin-induced ER stress). It is filed as cell-based. To be noted: tunicamycin 2 hours, read-out: Cellular IC50 (μM) (EIF2a). A digest of the protocol: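 Cells pre-incubated with inhibitor 30 min at 37 °C, then ER stress induced with […] tunicamycin for 2 h. TR-FRET read on lysates; ratio normalized to DMSO control as percent inhibition over a 10-point, 3-fold dilution series; IC50 from 4-parameter logistic fit.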
Chain of PERK (Q9NZJ5 30-1116): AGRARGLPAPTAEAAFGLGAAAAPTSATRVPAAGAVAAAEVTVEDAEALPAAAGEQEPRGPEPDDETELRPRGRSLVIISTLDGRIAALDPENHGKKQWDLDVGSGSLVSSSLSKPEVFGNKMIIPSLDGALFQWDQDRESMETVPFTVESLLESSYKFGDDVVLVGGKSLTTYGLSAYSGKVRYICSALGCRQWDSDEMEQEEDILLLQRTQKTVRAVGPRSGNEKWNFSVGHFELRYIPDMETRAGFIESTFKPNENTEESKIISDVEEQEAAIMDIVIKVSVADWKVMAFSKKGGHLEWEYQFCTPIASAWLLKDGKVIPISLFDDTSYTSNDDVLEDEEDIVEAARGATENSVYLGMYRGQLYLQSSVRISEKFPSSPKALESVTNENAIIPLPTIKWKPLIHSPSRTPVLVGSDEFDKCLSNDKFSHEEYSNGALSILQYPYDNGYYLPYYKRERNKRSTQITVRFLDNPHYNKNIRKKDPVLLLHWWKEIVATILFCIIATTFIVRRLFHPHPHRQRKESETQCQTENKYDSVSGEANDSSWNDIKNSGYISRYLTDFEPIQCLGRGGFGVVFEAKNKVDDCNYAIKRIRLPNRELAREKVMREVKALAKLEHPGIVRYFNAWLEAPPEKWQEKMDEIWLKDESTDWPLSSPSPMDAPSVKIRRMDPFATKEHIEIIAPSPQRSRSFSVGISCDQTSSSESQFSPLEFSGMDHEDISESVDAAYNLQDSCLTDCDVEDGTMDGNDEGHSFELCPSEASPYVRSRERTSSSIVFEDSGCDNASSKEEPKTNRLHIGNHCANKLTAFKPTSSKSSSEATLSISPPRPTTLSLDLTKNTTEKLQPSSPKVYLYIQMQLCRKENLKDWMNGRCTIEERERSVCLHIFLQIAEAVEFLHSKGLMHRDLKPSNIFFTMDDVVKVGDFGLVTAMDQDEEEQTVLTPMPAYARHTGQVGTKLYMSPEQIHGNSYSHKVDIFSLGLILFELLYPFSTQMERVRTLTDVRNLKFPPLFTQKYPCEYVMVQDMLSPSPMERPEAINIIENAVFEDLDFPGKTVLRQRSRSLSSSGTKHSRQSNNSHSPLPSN

Assay [1] deals with EIF2AK3 (PERK) catalytic domain (amino acids 536-1116) (Homo sapiens (Human), UniProt Q9NZJ5). Briefly: PERK in vitro activity assay (isolated), TR-FRET kinase assay. To be noted: isolated PERK enzyme, 1.5 μM ATP, GFP-eIF2a substrate; read-out: Biochemical IC50. A digest of the protocol: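 Human PERK catalytic domain (aa 536-1116) with 100-200 nM GFP-eIF2a in 50 mM HEPES pH 7.5, 10 mM MgCl2, 1.0 mM EGTA, 0.01% Brij-35; enzyme-started reaction run 45 min at room temperature. Stopped with 10 mM EDTA, 2 nM Tb-anti-phospho-eIF2a added for 90 min; IC50 from TR-FRET ratio by 4-parameter logistic fit.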
Chain of EIF2AK3 (PERK) catalytic domain (amino acids 536-1116) (Q9NZJ5 536-1116): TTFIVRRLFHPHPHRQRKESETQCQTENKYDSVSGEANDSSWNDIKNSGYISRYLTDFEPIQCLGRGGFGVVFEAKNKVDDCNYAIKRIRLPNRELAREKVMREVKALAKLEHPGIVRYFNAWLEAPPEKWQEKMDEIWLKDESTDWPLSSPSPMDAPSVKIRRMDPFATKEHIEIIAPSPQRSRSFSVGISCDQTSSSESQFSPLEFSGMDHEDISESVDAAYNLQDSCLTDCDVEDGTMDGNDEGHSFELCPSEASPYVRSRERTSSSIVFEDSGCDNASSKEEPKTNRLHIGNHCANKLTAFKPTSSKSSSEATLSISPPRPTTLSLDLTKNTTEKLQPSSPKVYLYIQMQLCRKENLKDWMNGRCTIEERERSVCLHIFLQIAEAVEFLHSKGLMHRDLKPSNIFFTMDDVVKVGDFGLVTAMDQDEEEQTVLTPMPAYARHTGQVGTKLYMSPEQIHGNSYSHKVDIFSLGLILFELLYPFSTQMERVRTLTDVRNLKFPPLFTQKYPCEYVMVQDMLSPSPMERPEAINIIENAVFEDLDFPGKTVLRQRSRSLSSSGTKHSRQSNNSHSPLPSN
(In general: In TR-FRET formats the signal depends on donor and acceptor labels being close together.)

The structures appear in SMILES notation. Some results are limits rather than exact numbers.

As a reminder, the IC50 is the concentration needed to halve the response being measured.

For the compound `Nc1ncc(-c2ccc(NC(=O)C(O)c3cc(F)cc(F)c3)cc2Cl)nc1C(=O)NC1COC1` (stereo not drawn) [Example 169, 3-amino-6-(2-chloro-4-(2-(3,5-difluorophenyl)-2-hydroxyacetamido)phenyl)-N-(oxetan-3-yl)pyrazine-2-carboxamide], the IC50 on PERK was 0.001 to 0.025 µM; in assay [1] it was 1 to 25 nM.

On to `Cc1cc(NC(=O)C(O)c2cc(F)cc(F)c2)ccc1-c1ccc(N)nc1` (stereo not drawn) [Example 170, N-(4-(6-aminopyridin-3-yl)-3-methylphenyl)-2-(3,5-difluorophenyl)-2-hydroxyacetamide], for which the IC50 at PERK is 2 to 3 µM; in assay [1] it was 51 to 100 nM.

As for `Cc1cc(NC(=O)C(O)c2cc(F)cc(F)c2)ccc1-c1ccc(N)nc1` (stereo not drawn) [Example 171, N-(4-(6-aminopyridin-3-yl)-3-methylphenyl)-2-(3,5-difluorophenyl)-2-hydroxyacetamide], the values for the IC50 (at PERK; in assay [1]) were more than 5 µM and 251 to 500 nM, respectively.

Consider `CNc1ccc(-c2ccc(NC(=O)C(O)c3cc(F)cc(F)c3)cc2C)cn1` (stereo not drawn) [Example 172, 2-(3,5-difluorophenyl)-2-hydroxy-N-(3-methyl-4-(6-(methylamino)pyridin-3-yl)phenyl) acetamide], for which the IC50 lay in the range of 1 to 2 µM at PERK and 51 to 100 nM in assay [1].

In the case of `CNc1ccc(-c2ccc(NC(=O)C(O)c3cc(F)cc(F)c3)cc2C)cn1` (stereo not drawn) [Example 173, 2-(3,5-difluorophenyl)-2-hydroxy-N-(3-methyl-4-(6-(methylamino)pyridin-3-yl)phenyl)acetamide], the concentration for half-maximal inhibition (IC50) on PERK is more than 5 µM; in assay [1] it was 101 to 250 nM.

`CNc1ncc(-c2ccc(NC(=O)C(O)c3cc(F)cc(F)c3)cc2C)cc1C(=O)NC(C)C` (stereo not drawn) [Example 174, 5-(4-(2-(3,5-difluorophenyl)-2-hydroxyacetamido)-2-methylphenyl)-N-isopropyl-2-(methylamino) nicotinamide]: the figures for the IC50 (at PERK; in assay [1]) were 4 to 5 µM and 101 to 250 nM, respectively.

Take `CNc1ncc(-c2ccc(NC(=O)C(O)c3cc(F)cc(F)c3)cc2C)cc1C(=O)NC(C)C` (stereo not drawn) [Example 175, 5-(4-(2-(3,5-difluorophenyl)-2-hydroxyacetamido)-2-methylphenyl)-N-isopropyl-2-(methylamino) nicotinamide]: the IC50 was more than 5 µM on PERK and 1000 to 2000 nM in assay [1].

As to `Cc1cc(NC(=O)C(O)c2cc(F)cc(F)c2)ccc1-c1cnc(C)c(C(=O)NC(C)C)c1` (stereo not drawn) [Example 176, 5-(4-(2-(3,5-difluorophenyl)-2-hydroxyacetamido)-2-methylphenyl)-N-isopropyl-2-methylnicotinamide], the IC50 on PERK was in the range of 0.501 to 1 µM; in assay [1] it was 51 to 100 nM.

For `Cc1cc(NC(=O)C(O)c2cc(F)cc(F)c2)ccc1-c1cnc(C)c(C(=O)NC(C)C)c1` (stereo not drawn) [Example 177, 5-(4-(2-(3,5-difluorophenyl)-2-hydroxyacetamido)-2-methylphenyl)-N-isopropyl-2-methylnicotinamide], the IC50 was 0.251 to 0.5 µM on PERK and 26 to 50 nM in assay [1].

With `Cc1cc(NC(=O)C(O)c2cc(F)cc(F)c2)ccc1-c1cncc(C(=O)NC(C)C)c1` (stereo not drawn) [Example 178, 5-(4-(2-(3,5-difluorophenyl)-2-hydroxyacetamido)-2-methylphenyl)-N-isopropylnicotinamide], the IC50 at PERK lay within 0.101 to 0.25 µM; in assay [1], 26 to 50 nM.

As to `Cc1cc(NC(=O)C(O)c2cc(F)cc(F)c2)ccc1-c1cncc(C(=O)NC(C)C)c1` (stereo not drawn) [Example 179, 5-(4-(2-(3,5-difluorophenyl)-2-hydroxyacetamido)-2-methylphenyl)-N-isopropylnicotinamide], the IC50 lay within 0.501 to 1 µM on PERK and 101 to 250 nM in assay [1].

As to `Cc1ccc(-c2ccc(NC(=O)C(O)c3cc(F)cc(F)c3)cc2C)cn1` (stereo not drawn) [Example 180, 2-(3,5-difluorophenyl)-2-hydroxy-N-(3-methyl-4-(6-methylpyridin-3-yl)phenyl)acetamide], the IC50 on PERK is more than 5 µM; in assay [1] it was 1000 to 2000 nM.

In the case of `Cc1ccc(-c2ccc(NC(=O)C(O)c3cc(F)cc(F)c3)cc2C)cn1` (stereo not drawn) [Example 181, 2-(3,5-difluorophenyl)-2-hydroxy-N-(3-methyl-4-(6-methylpyridin-3-yl)phenyl)acetamide], the IC50 on PERK is more than 5 µM; in assay [1], more than 5000 nM.

As to `Cc1cc(N(O)C(=O)C(O)c2cc(F)cc(F)c2)ccc1-c1cnc(N)c(C(=O)NC(C)C)c1` (stereo not drawn) [Example 182, 2-amino-5-(4-(2-(3,5-difluorophenyl)-N,2-dihydroxyacetamido)-2-methylphenyl)-N-isopropylnicotinamide], the results for the IC50 (at PERK; in assay [1]) were 2 to 3 µM and 251 to 500 nM, respectively.

For the compound `Cc1cc(NC(=O)C(F)(F)c2ccccc2)ccc1-c1cnc(N)c(C(=O)NC(C)C)c1` [Example 183, 2-amino-5-(4-(2,2-difluoro-2-phenylacetamido)-2-methylphenyl)-N-isopropylnicotinamide], the IC50 on PERK lay within 2 to 3 µM; in assay [1] it was 101 to 250 nM.

Take `Cc1cc(NC(=O)C(=O)c2cc(F)cc(F)c2)ccc1-c1cnc(N)c(C(=O)NC(C)C)c1` [Example 184, 2-amino-5-(4-(2-(3,5-difluorophenyl)-2-oxoacetamido)-2-methylphenyl)-N-isopropyl nicotinamide]: the IC50 at PERK is 0.101 to 0.25 µM; in assay [1] it was 251 to 500 nM.

With `Cc1cccc(CC(=O)Nc2ccc(-c3cnc(N)c(C(=O)NC(C)C)c3)c(C)c2)n1` [Example 185, 2-amino-N-isopropyl-5-(2-methyl-4-(2-(6-methylpyridin-2-yl)acetamido)phenyl)nicotinamide], the IC50 fell in the range of 0.251 to 0.5 µM at PERK and 1 to 25 nM in assay [1].

Regarding `Cc1cc(NC(=O)Cc2cc(F)cc(F)c2)ccc1-c1cnc(N)c(C(=O)NC(C)C)c1` [Example 186, 2-amino-5-(4-(2-(3,5-difluorophenyl)acetamido)-2-methylphenyl)-N-isopropylnicotinamide], the IC50 on PERK was 0.101 to 0.25 µM; in assay [1], 51 to 100 nM.

For `Cc1cc(NC(=O)Cc2ccccc2)ccc1-c1cnc(N)c(C(=O)NC(C)C)c1` [Example 187, 2-amino-N-isopropyl-5-(2-methyl-4-(2-phenylacetamido)phenyl)nicotinamide], the values for the IC50 (on PERK; in assay [1]) were 0.501 to 1 µM and 51 to 100 nM, respectively.

For the compound `Cc1cc(NC(=O)CCc2ccccc2)ccc1-c1cnc(N)c(C(=O)NC(C)C)c1` [Example 188, 2-amino-N-isopropyl-5-(2-methyl-4-(3-phenylpropanamido)phenyl) nicotinamide], the concentration for half-maximal inhibition (IC50) at PERK lay in the range of 2 to 3 µM; in assay [1] it was 251 to 500 nM.

Regarding `Cc1cc(NC(=O)Cc2ccccc2F)ccc1-c1cnc(N)c(C(=O)NC(C)C)c1` [Example 189, 2-amino-5-(4-(2-(2-fluorophenyl)acetamido)-2-methylphenyl)-N-isopropylnicotinamide], the 50% inhibitory concentration (IC50) lay in the range of 0.501 to 1 µM on PERK and 101 to 250 nM in assay [1].

`Cc1cc(NC(=O)Cc2cccc(F)c2)ccc1-c1cnc(N)c(C(=O)NC(C)C)c1` [Example 190, 2-amino-5-(4-(2-(3-fluorophenyl)acetamido)-2-methylphenyl)-N-isopropylnicotinamide]: the IC50 at PERK fell in the range of 0.501 to 1 µM; in assay [1], 51 to 100 nM.

As to `Cc1cc(NC(=O)Cc2ccc(F)cc2)ccc1-c1cnc(N)c(C(=O)NC(C)C)c1` [Example 191, 2-amino-5-(4-(2-(4-fluorophenyl)acetamido)-2-methylphenyl)-N-isopropylnicotinamide], the IC50 lay in the range of 1 to 2 µM on PERK and 51 to 100 nM in assay [1].

Take `COc1ccccc1CC(=O)Nc1ccc(-c2cnc(N)c(C(=O)NC(C)C)c2)c(C)c1` [Example 192, 2-amino-N-isopropyl-5-(4-(2-(2-methoxyphenyl)acetamido)-2-methylphenyl) nicotinamide]: the IC50 on PERK was in the range of 2 to 3 µM; in assay [1] it was 101 to 250 nM.

For the compound `COc1cccc(CC(=O)Nc2ccc(-c3cnc(N)c(C(=O)NC(C)C)c3)c(C)c2)c1` [Example 193, 2-amino-N-isopropyl-5-(4-(2-(3-methoxyphenyl)acetamido)-2-methylphenyl) nicotinamide], the results for the IC50 (on PERK; in assay [1]) were 0.501 to 1 µM and 51 to 100 nM, respectively.

For `COc1ccc(CC(=O)Nc2ccc(-c3cnc(N)c(C(=O)NC(C)C)c3)c(C)c2)cc1` [Example 194, 2-amino-N-isopropyl-5-(4-(2-(4-methoxyphenyl)acetamido)-2-methylphenyl) nicotinamide], the IC50 on PERK lay in the range of 2 to 3 µM; in assay [1] it was 501 to 1000 nM.

On to `Cc1ccc(CC(=O)Nc2ccc(-c3cnc(N)c(C(=O)NC(C)C)c3)c(C)c2)cc1` [Example 197, 2-amino-N-isopropyl-5-(2-methyl-4-(2-(p-tolyl)acetamido)phenyl)nicotinamide], for which the IC50 at PERK was in the range of 1 to 2 µM; in assay [1] it was 101 to 250 nM.

Regarding `Cc1cc(NC(=O)Cc2ccccc2Cl)ccc1-c1cnc(N)c(C(=O)NC(C)C)c1` [Example 198, 2-amino-5-(4-(2-(2-chlorophenyl)acetamido)-2-methylphenyl)-N-isopropylnicotinamide], the IC50 fell in the range of 0.501 to 1 µM on PERK and 26 to 50 nM in assay [1].

On to `Cc1cc(NC(=O)Cc2cccc(Cl)c2)ccc1-c1cnc(N)c(C(=O)NC(C)C)c1` [Example 199, 2-amino-5-(4-(2-(3-chlorophenyl)acetamido)-2-methylphenyl)-N-isopropylnicotinamide], for which the values for the IC50 (on PERK; in assay [1]) were 0.101 to 0.25 µM and 26 to 50 nM, respectively.

In the case of `Cc1cc(NC(=O)Cc2ccc(Cl)cc2)ccc1-c1cnc(N)c(C(=O)NC(C)C)c1` [Example 200, 2-amino-5-(4-(2-(4-chlorophenyl)acetamido)-2-methylphenyl)-N-isopropylnicotinamide], the IC50 at PERK fell in the range of 0.501 to 1 µM; in assay [1], 501 to 1000 nM.

The values above are taken from patent publication US12473296B2, “Perk inhibiting compounds” (HiberCell, Inc., priority 2019, dated 2025).
